Test results reported in patent US20250145596A1, “HETEROCYCLIC GLP-1 AGONISTS” (Gasherbrum Bio, Inc., priority 2022, published 2025).

Molecular target: T1, GLP-1 Receptor (Homo sapiens, UniProt P43220)
T1 construct: host or cells: HEK293/CRE-Luc
Test: GLP-1R agonist cAMP stimulation assay
Type: cell-based
Conditions: HEK293/CRE-Luc cell line stably expressing the GLP-1 Receptor; 30 min at 37° C.; cAMP dynamic 2 Kit
Method: Activation of GLP-1 receptor is known to stimulate cyclic AMP (cAMP) production in cells which indicates primary coupling to the Gas subunit of the G protein heterotrimeric complex.
To optimize functional activity directed toward Gas coupling, a HEK293/CRE-Luc cell line developed by HDB stably expressing the GLP-1 Receptor was used. 200× concentration of compound working solutions were prepared (Agilent Technologies Bravo) with ½ log serial dilution in 384-well Echo LDV plate (Labcyte, Cat #LP-0200). 50 nL/well 200× concentration of compound working solutions were moved to 384-well white low volume plate (Greiner, Cat #784075) using Labcyte ECHO550. 1×10^5 cells/mL HEK293/GLPlR/CRE-LUC (HD Biosciences) cell suspensions prepared with assay buffer [DPBS containing 0.5 mM IBMX (Sigma, Cat #15879) and 0.1% BSA (GENVIEW, Cat #FA016-100g)], 10 μL cell suspensions were added to each well of previous generated assay plate which already contains 50 nL compound at 200× concentration using ThermoFisher Multidrop Combi (1000 cells/well). Seal the plate and incubate at 37° C. with 5% CO2 for 30 min.
After incubation the cAMP assay signal was generated using cAMP dynamic 2 Kit (Cisbio). 5 μL cAMP-d2 working solution was added to each well, followed with 5 μL Anti-cAMP antibody-cryptate working solution added to each well using ThermoFisher Multidrop Combi. Incubate at room temperature for 1 hour protected from light. Read the fluorescence at 665 and 615 nm with Reader PerkinElmer EnVision.
% Activity=100%×(mean RLU of test sample mean RLU of vehicle control)/(mean RLU of MAX control−mean RLU of vehicle control))

T1 sequence (P43220 24-463): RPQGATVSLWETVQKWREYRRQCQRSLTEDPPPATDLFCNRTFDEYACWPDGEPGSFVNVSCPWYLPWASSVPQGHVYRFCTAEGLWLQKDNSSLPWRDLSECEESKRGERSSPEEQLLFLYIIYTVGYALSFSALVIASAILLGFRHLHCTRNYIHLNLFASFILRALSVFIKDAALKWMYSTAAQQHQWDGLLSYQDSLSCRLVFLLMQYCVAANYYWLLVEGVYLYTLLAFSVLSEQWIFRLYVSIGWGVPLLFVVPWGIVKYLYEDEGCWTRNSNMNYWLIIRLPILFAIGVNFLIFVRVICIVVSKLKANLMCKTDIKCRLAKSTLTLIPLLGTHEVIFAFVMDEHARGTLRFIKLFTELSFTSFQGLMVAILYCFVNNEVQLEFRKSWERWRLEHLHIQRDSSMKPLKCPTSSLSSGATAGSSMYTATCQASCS

SMILES | EC50 [nM]
Cc1cc(-c2nnn[nH]2)nnc1CN1CCC(c2cccc3c2O[C@@](C)(c2ccc(Cl)cc2F)O3)CC1 [Example 50, 3-({4-[(2S)-2-(4-chloro-2-fluorophenyl)-2-methyl-1,3-benzodioxol-4-yl]piperidin-1-yl}methyl)-4-methyl-6-(1H-1,2,3,4-tetrazol-5-yl)pyridazine] | 1 to 100
Cc1cc(-c2nnc(C(F)(F)F)[nH]2)cnc1CN1CCC(c2cccc(OCc3ccc(Cl)cc3F)n2)CC1 [Example 90] | 1 to 100
CC1(c2ccc(Cl)cc2F)Oc2cccc(C3CCN(Cc4ncc(-c5nnn[nH]5)cc4C(F)(F)F)CC3)c2O1 (stereo not shown) [Example 98] | > 100
N#CC1(Cc2cc(-c3nnc(C(F)(F)F)[nH]3)cnc2CN2CCN(c3ccc(Cl)c(OCc4ccc(Cl)cc4F)c3)CC2)CC1 [Example 42, 1-({2-[(4-{4-chloro-3-[(4-chloro-2-fluorophenyl)methoxy]phenyl}piperazin-1-yl)methyl]-5-[5-(trifluoromethyl)-4H-1,2,4-triazol-3-yl]pyridin-3-yl}methyl)cyclopropane-1-carbonitrile] | 1 to 100
Cc1cc(-c2cnn(C)c(=O)c2)cnc1CN1CCC(c2cccc(OCc3ccc(Cl)cc3F)n2)CC1 [Example 100] | > 100
C[C@]1(c2ccc(Cl)cc2F)Oc2cccc(C3CCN(Cc4ncc(-c5nnc(C(F)(F)F)[nH]5)cc4CC4CCS4(=O)=O)CC3)c2O1 (stereo partly drawn) [Example 54, 2-{[2-({4-[(2S)-2-(4-chloro-2-fluorophenyl)-2-methyl-2H-1,3-benzodioxol-4-yl]piperidin-1-yl}methyl)-5-[5-(trifluoromethyl)-4H-1,2,4-triazol-3-yl]pyridin-3-yl]methyl}-1λ^6-thietane-1,1-dione] | 1 to 100
N#CC1(Cc2cc(-c3nnc(C(F)(F)F)[nH]3)cnc2CN2CCC(c3cccnc3OCc3ccc(Cl)cc3F)CC2)CC1 [Example 37, 1-({2-[(4-{2-[(4-chloro-2-fluorophenyl)methoxy]pyridin-3-yl}piperidin-1-yl)methyl]-5-[5-(trifluoromethyl)-4H-1,2,4-triazol-3-yl]pyridin-3-yl}methyl)cyclopropane-1-carbonitrile] | < 1
C[C@H]1CN(c2ccnc(OCc3ccc(Cl)cc3F)n2)CCN1Cc1ncc(-c2nnc(C(F)(F)F)[nH]2)cc1CC1(C#N)CC1 [Example 91] | 1 to 100
COC(C)Cc1cc(-c2nnc(C(F)(F)F)[nH]2)cnc1CN1CCC(c2cccc3c2O[C@@](C)(c2ccc(Cl)cc2F)O3)CC1 (stereo partly shown) [Example 81] | 1 to 100
N#CC1(Cc2cc(-c3nnc(C(F)(F)F)[nH]3)cnc2CN2CCC(Oc3ccnc(Cc4ccc(Cl)cc4F)n3)CC2)CC1 [Example 86] | 1 to 100
C[C@]1(c2ccc(Cl)cc2F)Oc2cccc(C3CCN(Cc4ncc(-c5nnn[nH]5)cc4CC4(C#N)CC4)CC3)c2O1 [Example 71] | < 1
CC1(c2ccc(F)cc2F)Oc2cccc(C3CCN(Cc4ncc(-c5nnc(C(F)(F)F)[nH]5)cc4CC4(C#N)CC4)CC3)c2O1 (stereo not shown) [Example 5, 1-{[2-({4-[2-(2,4-difluorophenyl)-2-methyl-2H-1,3-benzodioxol-4-yl]piperidin-1-yl}methyl)-5-[5-(trifluoromethyl)-4H-1,2,4-triazol-3-yl]pyridin-3-yl]methyl}cyclopropane-1-carbonitrile] | < 1
C[C@]1(c2ccc(Cl)cc2F)Oc2cccc(C3CCN(Cc4ncc(C5CC5C(=O)O)cc4CC4(C#N)CC4)CC3)c2O1 (stereo partly drawn) [Example 67, 2-(6-((4-((S)-2-(4-chloro-2-fluorophenyl)-2-methylbenzo[d][1,3]dioxol-4-yl)piperidin-1-yl)methyl)-5-((1-cyanocyclopropyl)methyl)pyridin-3-yl)cyclopropane-1-carboxylic acid] | 1 to 100

Other lines, results leading:

EC50 [nM] | SMILES
< 1 | CCS(=O)(=O)Cc1cc(-c2nnc(C(F)(F)F)[nH]2)cnc1CN1CCC(c2cccc3c2O[C@@](C)(c2ccc(Cl)cc2F)O3)CC1 [Example 59, 2-({4-[(2S)-2-(4-chloro-2-fluorophenyl)-2-methyl-2H-1,3-benzodioxol-4-yl]piperidin-1-yl}methyl)-3-[(ethanesulfonyl)methyl]-5-[5-(trifluoromethyl)-4H-1,2,4-triazol-3-yl]pyridine]
< 1 | N#CC1(Cc2cc(-c3nnc(C(F)(F)F)[nH]3)cnc2CN2CC=C(c3cccc(OCc4ccc(Cl)cc4F)n3)CC2)CC1 [Example 47, 1-{[2-({6-[(4-chloro-2-fluorophenyl)methoxy]-1′,2′,3′,6′-tetrahydro-[2,4′-bipyridin]-1′-yl}methyl)-5-[5-(trifluoromethyl)-4H-1,2,4-triazol-3-yl]pyridin-3-yl]methyl}cyclopropane-1-carbonitrile]
< 1 | CC1(c2ccc(Cl)cc2F)Oc2cccc(C3=CCN(Cc4ncc(-c5nnc(C(F)(F)F)[nH]5)cc4CC4(C#N)CC4)CC3)c2O1 (stereo not shown) [Example 66, 1-((2-((4-(2-(4-chloro-2-fluorophenyl)-2-methylbenzo[d][1,3]dioxol-4-yl)-3,6-dihydropyridin-1(2H)-yl)methyl)-5-(5-(trifluoromethyl)-4H-1,2,4-triazol-3-yl)pyridin-3-yl)methyl)cyclopropane-1-carbonitrile]
1 to 100 | CC1(c2ccccc2F)Oc2ccc(F)c(C3CCN(Cc4ncc(-c5nnc(C(F)(F)F)[nH]5)cc4CC4(C#N)CC4)CC3)c2O1 (stereo not shown) [Example 80]
< 1 | C[C@]1(c2ccc(Cl)cc2F)Oc2cccc(C3CCN(Cc4ncc(-c5nnc(C#N)[nH]5)cc4CC4(C#N)CC4)CC3)c2O1 [Example 18, (S)-5-(6-((4-(2-(4-chloro-2-fluorophenyl)-2-methylbenzo[d][1,3]dioxol-4-yl)piperidin-1-yl)methyl)-5-((1-cyanocyclopropyl)methyl)pyridin-3-yl)-4H-1,2,4-triazole-3-carbonitrile]
< 1 | N#CC1(Cc2cc(-c3nnc(C(F)(F)F)[nH]3)cnc2CN2CCN(c3ccc(F)c(OCc4ccc(Cl)cc4F)c3)CC2)CC1 [Example 41, 1-({2-[(4-{3-[(4-chloro-2-fluorophenyl)methoxy]-4-fluorophenyl}piperazin-1-yl)methyl]-5-[5-(trifluoromethyl)-4H-1,2,4-triazol-3-yl]pyridin-3-yl}methyl)cyclopropane-1-carbonitrile]
< 1 | CC1(c2ccc(Cl)cc2Cl)Oc2cccc(C3CCN(Cc4ncc(-c5nnc(C(F)(F)F)[nH]5)cc4CC4(C#N)CC4)CC3)c2O1 (single isomer, unassigned) [Example 2, 1-{[2-({4-[2-(2,4-dichlorophenyl)-2-methyl-2H-1,3-benzodioxol-4-yl]piperidin-1-yl}methyl)-5-[5-(trifluoromethyl)-4H-1,2,4-triazol-3-yl]pyridin-3-yl]methyl}cyclopropane-1-carbonitrile]
1 to 100 | N#CC1(Cc2cc(-c3nnc(C(F)(F)F)[nH]3)cnc2CN2CCN(c3ncc(F)c(OCc4ccc(Cl)cc4F)n3)CC2)CC1 [Example 45, 1-((2-((4-(4-((4-chloro-2-fluorobenzyl)oxy)-5-fluoropyrimidin-2-yl)piperazin-1-yl)methyl)-5-(5-(trifluoromethyl)-4H-1,2,4-triazol-3-yl)pyridin-3-yl)methyl)cyclopropane-1-carbonitrile]
> 100 | Cc1cc(CN2CCC(c3cccc4c3OC(C)(c3ccc(Cl)cc3F)O4)CC2)ncc1-c1nnn[nH]1 (stereo not shown) [Example 96]
> 100 | Cc1cc(-c2noc(=O)[nH]2)cnc1CN1CCC(c2cccc(OCc3ccc(Cl)cc3F)n2)CC1 [Example 95]
< 1 | N#CC1(Cc2cc(-c3nnc(C(F)(F)F)[nH]3)cnc2CN2CCC(c3cccc4c3OC(c3ccc(Cl)cc3F)CO4)CC2)CC1 (stereo not shown) [Example 38, 1-{[2-({4-[3-(4-chloro-2-fluorophenyl)-2,3-dihydro-1,4-benzodioxin-5-yl]piperidin-1-yl}methyl)-5-[5-(trifluoromethyl)-4H-1,2,4-triazol-3-yl]pyridin-3-yl]methyl}cyclopropane-1-carbonitrile]
< 1 | C[C@]1(c2ccc(Cl)cc2F)Oc2c(F)ccc(C3CCN(Cc4ncc(-c5nnc(C(F)(F)F)[nH]5)cc4CC4(C#N)CC4)CC3F)c2O1 (single isomer, unassigned) [Example 29]
1 to 100 | COCCc1cc(-c2nnc(C(F)(F)F)[nH]2)cnc1CN1CCC(c2cccc3c2O[C@@](C)(c2ccc(Cl)cn2)O3)CC1 [Example 89]
< 1 | C[C@]1(c2ccc(Cl)cc2F)Oc2cccc(C3CCN(Cc4ncc(-c5nnc(C(F)F)[nH]5)cc4CC4(C#N)CC4)CC3)c2O1 [Example 17, 1-{[2-({4-[(2S)-2-(4-chloro-2-fluorophenyl)-2-methyl-2H-1,3-benzodioxol-4-yl]piperidin-1-yl}methyl)-5-[5-(difluoromethyl)-4H-1,2,4-triazol-3-yl]pyridin-3-yl]methyl}cyclopropane-1-carbonitrile]
< 1 | C[C@]1(c2ccc(Cl)cc2F)Oc2cccc(C3CCN(Cc4ncc(-c5nnc(C(F)(F)F)[nH]5)nc4CC4(C#N)CC4)CC3)c2O1 [Example 62, 1-{[3-({4-[(2S)-2-(4-chloro-2-fluorophenyl)-2-methyl-2H-1,3-benzodioxol-4-yl]piperidin-1-yl}methyl)-6-[5-(trifluoromethyl)-4H-1,2,4-triazol-3-yl]pyrazin-2-yl]methyl}cyclopropane-1-carbonitrile]
